Measurements as given in BigSolDB 2.1.

Nc1ccc(Br)nn1
solubility (mole fraction)
Settings | in DMF | in acetone | in ethanol | in isopropanol | in methanol | in n-butanol | in n-propanol | in propylene glycol | in toluene | in water
278.15 K | 0.0126 | 0.00754 | 0.00216 | 0.00276 | 0.00108 | 0.00362 | 0.00316 | 0.00191 | 0.00989 | 2.57e-05
283.15 K | 0.0134 | 0.00832 | 0.00233 | 0.0031 | 0.00115 | 0.00405 | 0.00356 | 0.00205 | 0.0108 | 2.74e-05
288.15 K | 0.0144 | 0.0092 | 0.00251 | 0.00346 | 0.00123 | 0.00451 | 0.00401 | 0.0022 | 0.0118 | 2.94e-05
293.15 K | 0.0155 | 0.0102 | 0.0027 | 0.00384 | 0.00131 | 0.005 | 0.00446 | 0.0024 | 0.0129 | 3.18e-05
298.15 K | 0.0167 | 0.0113 | 0.0029 | 0.0043 | 0.00142 | 0.00556 | 0.00496 | 0.0026 | 0.0141 | 3.43e-05
303.15 K | 0.0179 | 0.0125 | 0.00314 | 0.00475 | 0.00152 | 0.0062 | 0.00557 | 0.00281 | 0.0154 | 3.7e-05
308.15 K | 0.0192 | 0.0138 | 0.0034 | 0.0053 | 0.00165 | 0.00687 | 0.00617 | 0.00305 | 0.0167 | 3.97e-05
313.15 K | 0.0206 | 0.0153 | 0.00366 | 0.00586 | 0.00178 | 0.00759 | 0.00683 | 0.0033 | 0.018 | 4.27e-05
318.15 K | 0.0223 | 0.0169 | 0.00399 | 0.00649 | 0.00192 | 0.00838 | 0.00758 | 0.00357 | 0.0196 | 4.6e-05
323.15 K | 0.0242 | 0.0188 | 0.0044 | 0.00721 | 0.00209 | 0.00933 | 0.0085 | 0.00391 | 0.0213 | 4.98e-05
